US20250230138A1, “COMPOUNDS HAVING A T-STRUCTURE FORMED BY AT LEAST FOUR CYCLES FOR USE IN THE TREATMENT OF CANCER AND OTHER INDICATIONS” (TheRas, Inc., priority 2022, published 2025)
Where two headings read alike, the source gives them in different places.

Key:
[1] = target: Cys242 in human PIK3CA (157-299) (Homo sapiens (Human), UniProt P42336); experiment: Covalent modification assay using MALDI-TOF MS; type: biochemical; conditions: 4 h reaction time point; 1 μM protein target, 1:5 protein to compound ratio (compounds 853-1279)
In short: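 PIK3CA (157-299) at 3.33 μM or 1 μM in 20 mM HEPES, 150 mM NaCl, 2 mM MgCl2, pH 7.3 was incubated with compound (from 10 mM DMSO stocks) in the dark at room temperature for 15 min, 30 min, 2 h or 4 h. Linear-mode MALDI-TOF peak heights gave percent modification.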

pAKT in BT474 cells = experiment: Cell-based pAKT HTRF assay in BT474 cells; conditions: BT474 cells, 4 hr incubation, Compounds 1000-1279, read-out: pAKT inhibition IC50 in BT474 cells
In short: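 The HTRF signal (excitation 320 nm, emission 615 nm) came from d2/Eu Cryptate antibodies added to lysates and incubated 4–24 h at room temperature. Those lysates were taken from cells treated for 4 hr with compound, top concentration 3 μM, in 0.25% DMSO.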

Chain of Cys242 in human PIK3CA (157-299) (P42336 157-299): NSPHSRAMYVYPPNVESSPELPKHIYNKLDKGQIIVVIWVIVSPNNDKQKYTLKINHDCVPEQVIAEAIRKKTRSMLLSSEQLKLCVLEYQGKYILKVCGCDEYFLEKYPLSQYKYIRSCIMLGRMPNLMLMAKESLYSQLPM

SMILES	IC50 (pAKT in BT474 cells; Homo sapiens, BT-474)	IC50 (pAKT in BT474 cells)	% of modification [1]
C=CC(=O)N1Cc2cc(-c3nc(C45CC(CN(C)C)(C4)C5)c4ccsc4c3-c3c(F)cc(F)cc3OCCOC)nn2C[C@H]1C [Compound 1168, 1-((6R)-2-(7-(2,4-difluoro-6-(2-methoxyethoxy)phenyl)-4-(3-((dimethylamino)methyl)bicyclo[1.1.1]pentan-1-yl)thieno[3,2-c]pyridin-6-yl)-6-methyl-6,7-dihydropyrazolo[1,5-a]pyrazin-5(4H)-yl)prop-2-en-1-one]	100 to 1000 nM		B (50%<percent of modification <75%)
C=CC(=O)N1CCn2nc(-c3nc(-c4ccc5c(c4)CNC5=O)c4c(c3-c3c(F)cc(F)cc3OCCOC)CCC4)cc2[C@H]1C [Compound 1174, 5-((R)-3-((R)-5-acryloyl-4-methyl-4,5,6,7-tetrahydropyrazolo[1,5-a]pyrazin-2-yl)-4-(2,4-difluoro-6-(2-methoxyethoxy)phenyl)-6,7-dihydro-5H-cyclopenta[c]pyridin-1-yl)isoindolin-1-one]		< 100 nM	A (percent of modification of PIK3CA protein ≥75%)
C=CC(=O)N1CCc2ccc(-c3nc(-c4cccc(OCCN(C)C)c4)c4ccsc4c3-c3c(F)cc(F)cc3OCCOC)cc2C1 [Compound 1184]		100 to 1000 nM	A (percent of modification of PIK3CA protein ≥75%)
C=CC(=O)N1CCn2nc(-c3nc(-c4ccc(C(=O)NCC5CN(C)C5)cc4)c4ccsc4c3-c3c(F)cc(F)cc3OCCOC)cc2C1C (stereo not shown) [Compound 1190]		100 to 1000 nM	A (percent of modification of PIK3CA protein ≥75%)
C=CC(=O)N1CCn2nc(-c3nc(-c4ccc5c(c4)C4(CC4)CN(C)C5)c4ccsc4c3-c3c(F)cc(F)cc3OCCO)cc2C1C (stereo not shown) [Compound 1197]		< 100 nM	A (percent of modification of PIK3CA protein ≥75%)
C=CC(=O)N1CCn2nc(-c3nc(-c4ccc(OC5CN(C)C5)cc4)c4ccsc4c3-c3c(F)cc(F)cc3OCCO)cc2C1C (stereo not shown) [Compound 1198]		< 100 nM	A (percent of modification of PIK3CA protein ≥75%)
C=CC(=O)N1CCn2nc(-c3nc(-c4ccnc(OCCN(C)C)c4)c4ccsc4c3-c3c(F)cc(F)cc3OCCOC)cc2C1C (stereo not shown) [Compound 1199]		< 100 nM	A (percent of modification of PIK3CA protein ≥75%)
C=CC(=O)N1CCc2cc(-c3nc(-c4ccc5nn(C)cc5c4)c4ccsc4c3-c3c(F)cc(F)cc3OCCO)nn2CC1 [Compound 1200]		< 100 nM	A (percent of modification of PIK3CA protein ≥75%)
C=CC(=O)N1CCn2nc(-c3nc(-c4ccc(OCC5CN(C)C5)nc4)c4ccsc4c3-c3c(F)cc(F)cc3OCCOC)cc2C1C (stereo not shown) [Compound 1201]		< 100 nM	A (percent of modification of PIK3CA protein ≥75%)
C=CC(=O)N1CCc2cc(-c3nc(-c4ccc5c(c4)CCNC5=O)c4ccsc4c3-c3c(F)cc(F)cc3OCCO)nn2CC1 [Compound 1202]		< 100 nM	A (percent of modification of PIK3CA protein ≥75%)
C=CC(=O)N1CCn2nc(-c3nc(-c4cncc(OC5CN(C)C5)c4)c4ccsc4c3-c3c(F)cc(F)cc3OCCOC)cc2C1C (stereo not shown) [Compound 1203]		< 100 nM	A (percent of modification of PIK3CA protein ≥75%)
C=CC(=O)N1CCn2nc(-c3nc(-c4ccc(OC5CN(C)C5)nc4)c4ccsc4c3-c3c(F)cc(F)cc3OCCOC)cc2C1C (stereo not shown) [Compound 1205]		< 100 nM	A (percent of modification of PIK3CA protein ≥75%)
C=CC(=O)N1CCn2nc(-c3nc(-c4ccc(C(=O)N(C)CCN(C)C)cc4)c4ccsc4c3-c3c(F)cc(F)cc3OCCOC)cc2C1C (stereo not shown) [Compound 1206]		< 100 nM	A (percent of modification of PIK3CA protein ≥75%)
C=CC(=O)N1CCc2cc(-c3nc(-c4ccc5c(cnn5C)c4)c4ccsc4c3-c3c(F)cc(F)cc3OCCO)nn2CC1 [Compound 1207, (S)-1-(2-(7-(2,4-difluoro-6-(2-hydroxyethoxy)phenyl)-4-(1-methyl-1H-indazol-5-yl)thieno[3,2-c]pyridin-6-yl)-4,5,7,8-tetrahydro-6H-pyrazolo[1,5-d][1,4]diazepin-6-yl)prop-2-en-1-one]	< 100 nM		A (percent of modification of PIK3CA protein ≥75%)
C=CC(=O)N1CCc2cc(-c3nc(-c4ccc5cn(C)nc5c4)c4ccsc4c3-c3c(F)cc(F)cc3OCCO)nn2CC1 [Compound 1210]		< 100 nM	A (percent of modification of PIK3CA protein ≥75%)
C=CC(=O)N1CCn2nc(-c3nc(-c4ccc5c(c4)CCN(C)CC5)c4c(c3-c3c(F)cc(F)cc3OCCOC)CCC4)cc2[C@H]1C [Compound 1223]		< 100 nM	A (percent of modification of PIK3CA protein ≥75%)
C=CC(=O)N1CCn2nc(-c3nc(-c4ccc(C5CCCN5C)cc4)c4ccsc4c3-c3c(F)cc(F)cc3OCCOC)cc2C1C (stereo not shown) [Compound 1224]		< 100 nM	A (percent of modification of PIK3CA protein ≥75%)
COCCOc1cc(F)cc(F)c1-c1c(-c2cc3n(n2)CCN(C(=O)CCl)[C@@H]3C)nc(-c2ccc3c(cnn3C)c2)c2ccsc12 [Compound 1225]		> 1000 nM	A (percent of modification of PIK3CA protein ≥75%)
C=C(F)C(=O)N1CCn2nc(-c3nc(-c4ccc5c(cnn5C)c4)c4ccsc4c3-c3c(F)cc(F)cc3OCCOC)cc2[C@H]1C [Compound 1226]		100 to 1000 nM	D (percent of modification <25%)
CC#CC(=O)N1CCn2nc(-c3nc(-c4ccc5c(cnn5C)c4)c4ccsc4c3-c3c(F)cc(F)cc3OCCOC)cc2[C@H]1C [Compound 1227]		100 to 1000 nM	B (50%<percent of modification <75%)
COCCOc1cc(F)cc(F)c1-c1c(-c2cc3n(n2)CCN(C(=O)C(F)Cl)[C@@H]3C)nc(-c2ccc3c(cnn3C)c2)c2ccsc12 (stereo partly shown) [Compound 1228]		> 1000 nM	D (percent of modification <25%)
C#CC(=O)N1CCn2nc(-c3nc(-c4ccc5c(cnn5C)c4)c4ccsc4c3-c3c(F)cc(F)cc3OCCOC)cc2[C@H]1C [Compound 1229]		> 1000 nM	A (percent of modification of PIK3CA protein ≥75%)
C=CC(=O)N1CCn2nc(-c3nc(N4Cc5cn(C)nc5C4)c4ccsc4c3-c3c(F)cc(F)cc3OCCOC)cc2C1C (stereo not shown) [Compound 1230]		100 to 1000 nM	A (percent of modification of PIK3CA protein ≥75%)
COCCOc1cc(F)cc(F)c1-c1c(-c2cc3n(n2)CCN(C(=O)C=CCN(C)C)C3C)nc(-c2ccc3c(cnn3C)c2)c2ccsc12 (stereo not shown) [Compound 1232]		< 100 nM	A (percent of modification of PIK3CA protein ≥75%)

Now from value to molecule, other results behind:

IC50 (pAKT in BT474 cells; Homo sapiens, BT-474)	IC50 (pAKT in BT474 cells)	SMILES	% of modification [1]
	< 100 nM	C=CC(=O)N1CCn2nc(-c3nc(-c4ccc5c(c4)CCN(C)C5(C)C)c4ccsc4c3-c3c(F)cc(F)cc3OCCO)cc2C1C (stereo not shown) [Compound 1181]	A (percent of modification of PIK3CA protein ≥75%)
	< 100 nM	C=CC(=O)N1CCn2nc(-c3nc(-c4ccc5c(c4)CCC5N(C)C)c4ccsc4c3-c3c(F)cc(F)cc3OCCOC)cc2C1C (stereo not shown) [Compound 1182]	A (percent of modification of PIK3CA protein ≥75%)
	< 100 nM	C=CC(=O)N1CCn2nc(-c3nc(-c4ccc(C(=O)NCC(F)F)cc4)c4ccsc4c3-c3c(F)cc(F)cc3OCCOC)cc2C1C (stereo not shown) [Compound 1183]	A (percent of modification of PIK3CA protein ≥75%)
	< 100 nM	C=CC(=O)N1CCn2nc(-c3nc(-c4ccc(CC(=O)NC)cc4)c4ccsc4c3-c3c(F)cc(F)cc3OC)cc2C1C (stereo not shown) [Compound 1188]	A (percent of modification of PIK3CA protein ≥75%)
	< 100 nM	C=CC(=O)N1CCn2nc(-c3nc(-c4ccc(C(=O)N5CC(F)C(F)C5)cc4)c4ccsc4c3-c3c(F)cc(F)cc3OCCOC)cc2C1C (stereo not shown) [Compound 1189]	A (percent of modification of PIK3CA protein ≥75%)
	< 100 nM	C=CC(=O)N1CCc2ccc(-c3nc(-c4ccc5c(c4)CNC(=O)C54CC4)c4ccsc4c3-c3c(F)cc(F)cc3OCCOC)cc2C1 [Compound 1191]	A (percent of modification of PIK3CA protein ≥75%)
	< 100 nM	C=CC(=O)N1CCc2ncc(-c3nc(-c4ccc5c(c4)CNC(=O)C54CC4)c4ccsc4c3-c3c(F)cc(F)cc3OCCOC)cc2C1 [Compound 1192]	A (percent of modification of PIK3CA protein ≥75%)
	< 100 nM	C=CC(=O)N1CCn2nc(-c3nc(-c4ccc5c(c4)C4(CC4)CN(C)C5)c4ccsc4c3-c3c(F)cc(F)cc3OCCOC)cc2C1C (stereo not shown) [Compound 1193]	A (percent of modification of PIK3CA protein ≥75%)
	< 100 nM	C=CC(=O)N1CCn2nc(-c3nc(-c4cccc(OCCN(C)C)c4)c4ccsc4c3-c3c(F)cc(F)cc3OCCO)cc2C1C (stereo not shown) [Compound 1194]	A (percent of modification of PIK3CA protein ≥75%)
	< 100 nM	C=CC(=O)N1CCn2nc(-c3nc(-c4ccc5c(c4)NC(=O)CN(C)C5)c4ccsc4c3-c3c(F)cc(F)cc3OCCO)cc2C1C (stereo not shown) [Compound 1195]	A (percent of modification of PIK3CA protein ≥75%)
	< 100 nM	C=CC(=O)N1CCn2nc(-c3nc(-c4cnc5c(c4)CN(C)CC5(F)F)c4ccsc4c3-c3c(F)cc(F)cc3OCCO)cc2C1C (stereo not shown) [Compound 1196]	A (percent of modification of PIK3CA protein ≥75%)
